Results: US5015631A, “Repairing agent for cells and tissues” (MECT Corporation, priority 1987, dated 1991)
Where two headings read alike, the source gives them in different places.

Columns and labels:
rats = assay: Acute toxicity test in rats; assay type: in vivo
Description: (§1) The acute toxicity tests of sodium N-acetylneuraminate to mice, rats and guinea pigs given by oral administration or subcutaneous injection, intraperitoneal injection, intravenous injection or inhalation, were conducted as follows:
(§2) 20 w/v % (solution in distilled water)
In the inhalation, the subjects were exposed to a spray of the compound o

[1] = test system: nasal mucous membrane of rabbits; assay: Subacute disappearance of cilia from nasal mucous membrane of rabbits and degeneration of the epithelium induced by exposure to sulfur dioxide; assay type: in vivo, Male New Zealand White rabbits; for disappearance of cilia: key: -: Unchanged; +: Slight; ++: Moderate change; +++: Severe
Description: Effects on subacute disappearance of cilia from nasal mucous membrane of rabbits and degeneration of the epithelium thereof induced by exposure to sulfur dioxide:
Male New Zealand White rabbits weighing 1.8 to 2.2 kg were used.
(§3) Sodium N-acetylneuraminate (a product of MECT Corporation) was used.
The rabbits were exposed to sulfur dioxide by means of a sulfur dioxide-exposing apparatus for 2 hours a day continuously for 5 weeks. The sulfur dioxide concentrations were 70 to 150 ppm in the first and second weeks and 200 to 300 ppm in the third to fifth weeks. After the third week, the inhalation of the material or physiological saline by means of an ultrasonic nebulizer (TUR-3200: a product of Nippon Koden Co., Ltd.) was made immediately before the exposure to sulfur dioxide.
Group I: inhalation of 25 mg/kg of sodium N-acetylneuraminate for 2 minutes.
Group II: inhalation of 1 ml of physiological saline for 2 minutes.
Each group comprised six rabbits.
Five weeks after completion of the exposure to sulfur dioxide, the rabbits were killed by venesection and the intranarial changes of them were examined by a microscopic observation and the results were compared with one another.

mice [2] = assay: Acute toxicity test in mice; assay type: in vivo; conditions: male, 20160 min
Description: as §1, §2

[3] = test system: nasal mucous membranes of rats; assay: Acute disappearance of cilia from nasal mucous membranes of rats and degeneration of the epithelium induced by exposure to sulfur dioxide; assay type: in vivo, Male Wistar rats; conditions: for Disappearance of cilia / Disappearance of epithelium / Monolayer squamous metaplasia of epithelium: per animal; for Disappearance of epithelium: key: -: Unchanged; +: Slight; ++: Moderate change; +++: Severe; for Monolayer squamous metaplasia of epithelium: key: -: Unchanged; +: Slight; ++: Moderate change; +++: Severe; for disappearance of cilia: key: -: Unchanged; +: Slight; ++: Moderate change; +++: Severe
Description: The effects of test samples on acute disappearance of cilia from nasal mucous membranes of rats and the degeneration of the epithelium induced by exposure to sulfur dioxide:
Male Wistar rats weighing 180 to 200 g were used.
as §3
The rats were exposed to 400 ppm of sulfur dioxide for 4 hours. 30 minutes after the exposure, the rats were caused to inhale the test sample or physiological saline as follows:
Group I: inhalation of 300 mg/m^3 of sodium N-acetylneuraminate for 1 hour.
Group II: inhalation of 100 mg/m^3 of sodium N-acetylneuraminate for 1 hour.
Group III: inhalation of 20 ml/m^3 of the physiological saline for 1 hour.
Each group comprised 5 rats.
24 hours after the inhalation of the materials or physiological saline, the rats were killed and their intranarial changes were examined by a microscopic observation and the results were compared with one another.

Stability versus pH = assay type: physicochemical
mice [4] = assay: Simple acute toxicity test by intravenous injection in mice; assay type: in vivo, Male ddy mice; conditions: 3 mice
Description: Simple acute toxicity test:
Simple acute toxicity tests of the materials were conducted by intraveous injections for the mice as follows:
Lithium, potassium, barium and magnesium N-acetylneuraminates (products of MECT Corporation) were used.
Weight of the animal in the initial stage of the test: 17.7 to 21.1 g
Number of mice for each level: 3
(3) Room temperature: 23±1° C., humidity: 55±7%
(4) Route of administration: intravenous injection
The material was dissolved in the physiological saline. The concentration of the dose solution was adjusted so that 0.2 ml of the dose solution was administered per 20 g of the body weight of the mice. The solution was given to a tail of each mouse by the intravenous injection. The dose was 500, 1000 or 2000 mg/kg.
The general symptoms and death were observed from immediately after the administration to seven days after the administration.

[5] = Group I: inhalation 25 mg/kg for 2 minutes, per animal
[6] = Group I: inhalation 300 mg/m^3 for 1 hour
[7] = Group II: inhalation 100 mg/m^3 for 1 hour

CC(=O)N[C@H]1[C@H]([C@H](O)[C@H](O)CO)OC(O)(C(=O)[O-])C[C@@H]1O.[Na+] (stereo partly drawn)
LD50 (rats): > 5,000 mg/kg | LD50 (rats; rats, female, inhalation, spray for one hour): > 4,000 mg/m^3 | LD50 (rats; rats, male, inhalation, spray for one hour): > 4,000 mg/m^3 | LD50 (rats; rats, male, intraperitoneal, 20160 min): > 5,000 mg/kg | LD50 (rats; rats, male, intravenous, 20160 min): > 5,000 mg/kg | LD50 (rats; rats, male, oral, 20160 min): > 5,000 mg/kg | Squamous metaplasia of epithelium, comparison of groups ([1]; Group I (25 mg/kg) versus Group II (physiological saline)): more serious in Group II than in Group I | Disappearance of cilia [1, 5]: - and + and ++ | Squamous metaplasia of epithelium [1, 5]: - and + and ++ | Inhibition of subacute disappearance of cilia and squamous metaplasia of epithelium / repair of cells and tissues of nasal mucous membranes ([1]; sulfur dioxide exposure, 25 mg/kg inhalation): remarkable effect of inhibiting | LD50 (mice [2]; intraperitoneal): > 5,000 mg/kg | LD50 (mice [2]; intravenous): > 5,000 mg/kg | LD50 (mice [2]; oral): > 5,000 mg/kg | LD50 (mice [2]; subcutaneous): > 5,000 mg/kg | Disappearance of cilia [3, 6]: ++ and + | Disappearance of epithelium [3, 6]: - | Monolayer squamous metaplasia of epithelium [3, 6]: - | Disappearance of cilia [3, 7]: + and - and ++ | Disappearance of epithelium [3, 7]: - | Monolayer squamous metaplasia of epithelium [3, 7]: - | Intranarial changes ([3]; Groups I and II (300 and 100 mg/m^3), compared with Group III (physiological saline)): only the disappearance of cilia was observed and the degree of the disappearance was lower than that of Group III | Inhibition of acute disappearance of cilia, monolayer squamous metaplasia and disappearance of epithelium / degeneration of nasal mucous membranes ([3]; sulfur dioxide exposure, rats): remarkable effect of inhibiting | pH range of greatest stability (Stability versus pH): 5.5 to 6.0

CC(=O)N[C@H]1[C@H]([C@H](O)[C@H](O)CO)OC(O)(C(=O)O)C[C@@H]1O (stereo partly drawn) [Barium N-acetylneuraminate]
Final death rate (mice [4]; 500 mg/kg i.v.): 3/3 | Number of death with the elapse of time (mice [4]; 500 mg/kg i.v., 1 hr): 3 | Number of death with the elapse of time (mice [4]; 500 mg/kg i.v., 3 hrs): 0 | Number of death with the elapse of time (mice [4]; 500 mg/kg i.v., 6 hrs): 0 | Number of death with the elapse of time (mice [4]; 500 mg/kg i.v., 24 hrs): 0 | Number of death with the elapse of time (mice [4]; 500 mg/kg i.v., 2 days): 0 | Number of death with the elapse of time (mice [4]; 500 mg/kg i.v., 3 days): 0 | Number of death with the elapse of time (mice [4]; 500 mg/kg i.v., 4 days): 0 | Number of death with the elapse of time (mice [4]; 500 mg/kg i.v., 5 days): 0 | Number of death with the elapse of time (mice [4]; 500 mg/kg i.v., 6 days): 0 | Number of death with the elapse of time (mice [4]; 500 mg/kg i.v., 7 days): 0 | Number of death with the elapse of time (mice [4]; 1000 mg/kg i.v., 1 hr): 3 | Number of death with the elapse of time (mice [4]; 1000 mg/kg i.v., 3 hrs): 0 | Number of death with the elapse of time (mice [4]; 1000 mg/kg i.v., 6 hrs): 0 | Number of death with the elapse of time (mice [4]; 1000 mg/kg i.v., 24 hrs): 0 | Number of death with the elapse of time (mice [4]; 1000 mg/kg i.v., 2 days): 0 | Number of death with the elapse of time (mice [4]; 1000 mg/kg i.v., 3 days): 0 | Number of death with the elapse of time (mice [4]; 1000 mg/kg i.v., 4 days): 0 | Number of death with the elapse of time (mice [4]; 1000 mg/kg i.v., 5 days): 0 | Number of death with the elapse of time (mice [4]; 1000 mg/kg i.v., 6 days): 0 | Number of death with the elapse of time (mice [4]; 1000 mg/kg i.v., 7 days): 0 | Number of death with the elapse of time (mice [4]; 2000 mg/kg i.v., 1 hr): 3 | Number of death with the elapse of time (mice [4]; 2000 mg/kg i.v., 3 hrs): 0 | Number of death with the elapse of time (mice [4]; 2000 mg/kg i.v., 6 hrs): 0 | Number of death with the elapse of time (mice [4]; 2000 mg/kg i.v., 24 hrs): 0 | Number of death with the elapse of time (mice [4]; 2000 mg/kg i.v., 2 days): 0 | Number of death with the elapse of time (mice [4]; 2000 mg/kg i.v., 3 days): 0 | Number of death with the elapse of time (mice [4]; 2000 mg/kg i.v., 4 days): 0 | Number of death with the elapse of time (mice [4]; 2000 mg/kg i.v., 5 days): 0 | Number of death with the elapse of time (mice [4]; 2000 mg/kg i.v., 6 days): 0 | Number of death with the elapse of time (mice [4]; 2000 mg/kg i.v., 7 days): 0
